In patent US20260356824A1, “COMPOUNDS FOR TREATING FIBROTIC DISEASES” (Meta-Immue Inc., priority 2023, published 2026):

Assays:
BSEP = biological target: T1, BSEP (Homo sapiens, UniProt O95342); assay: Bile Salt Export Pump (BSEP) Assay, Sf9 insect cell vesicles expressing BSEP; format: in vitro ADME; conditions: 10 μM test compound, probe substrate 1 μM [3H]-taurocholic acid, 15 min incubation
T1 construct: ATP-dependent uptake of radiolabelled probe substrate
Experimental: • 1. A stock solution was prepared with the test article (Sponsor compound) in DMSO. • 2. All final assay solutions of probe substrate, reference inhibitor or test article contain 0.5% (v/v) DMSO (vehicle control). • 3. Test article concentrations in transport study were specified in the Summary Table of Experimental Conditions of this protocol.
• 1. Bovine Serum Albumin (BSA) • 2. Dimethyl sulfoxide (DMSO) • 3. BSEP Assay Uptake Buffer (10 mM HEPES-Tris pH 7.4, 0.1 M KNO3, 12.5 mM Mg(NO3)2, 50 mM sucrose) • 4. BSEP Wash Buffer (10 mM Tris-HCl pH 7.4, 0.1 M KNO3, 50 mM sucrose) • 5. BSEP Blocking Buffer (BSEP Wash Buffer+0.5 mg/mL BSA) • 6. 25 mM Mg-ATP solution • 7. 25 mM AMP solution • 8. Corning Costar 96-well flat-bottom, untreated, white Assay Plate (Corning Cat. No. 3912) • 9. Millipore MultiscreenHTs Filtration Plate, glass fiber FB—1.0/0.65 μm (Cat. No. MSFBN6B10 or glass fiber FC—1.2/0.65 μm (Cat. No. MSFCN6B10) • 10. Millipore MultiscreenHTS Vacuum Manifold (Cat. No. MSVMHTS00) • 11. Probe substrates listed in Table 1 • 12. Reference inhibitors listed in Table 1 • 13. Test articles
• 1. Test system: • a. 96-well flat bottom plate containing a suspension of vesicles and a corresponding 96-well glass fiber filtration plate. • b. Transport experiments were conducted in the Assay Uptake Buffer. • c. Transport experiment was initiated with the addition of Mg-ATP or AMP to appropriate wells. • d. Each condition was run in triplicate wells. • 2. Prepared the 96-well flat-bottom assay plate. • a. Incubated the assay plate with the Blocking Buffer for 60 min at 37 °C with orbital shaking at approximately 90 rpm. (NOTE: This is done to prevent non-specific binding of vesicles to polystyrene assay plate). • b. After 60 min, completely removed the Blocking Buffer from the assay plate. • c. The Assay Uptake Buffer solutions were added to the assay plate wells as follows: • i. For probe substrate transport assays, the Assay Uptake Buffer contained vesicles and the probe substrate at the specified concentration. • ii. For the reference inhibition assay, the Assay Uptake Buffer contained vesicles, the reference inhibitor and the probe substrate at the specified concentration in Table 1. • iii. For the test article assays, Assay Uptake Buffer contained vesicles, the test article and the probe substrate at the specified concentration in Table 1. • 3. Incubate at 37 °C with orbital shaking at approximately 90 rpm for the time period specified in Table 1 of this protocol. • 4. Using the 25 mM Mg-ATP or AMP stocks, Mg-ATP or AMP was added to test wells of flat bottom assay plate to a final concentration of 5 mM. • 5. Incubated at 37 °C with orbital shaking at approximately 90 rpm for the incubation time specified in Table 1 of this protocol. • 6. Prepared the 96-well glass fiber filtration plate: • a. Incubated the filtration plate with the Blocking Buffer for 2 min at room temperature with under no vacuum. • b. Turned on vacuum and allowed Blocking Buffer to filter through plate. • c. With vacuum on, filter plate was washed with ice cold Wash Buffer. • 7. At the end of the specified incubation time indicated in […] of this protocol, vesicle transport was quenched by adding ice cold Wash Buffer to samples in 96-well assay plate. • 8. Mixed assay samples (now diluted in Wash Buffer) with pipette and transfered 175 μL into the 96-well glass fiber filtration plate to separate vesicles from buffer by applying vacuum. • 9. Washed filter plate wells with ice cold Wash Buffer. • 10. Allowed filter plate to dry under vacuum. • 11. Transfered filters to scintillation sample plate and added 700 μL of scintillation fluid to the above samples. • 12. Counted the above samples on a 1450 Microbeta (Perkin-Elmer).
• 1. The amount of substrate was quantified with radiometric detection on a 1450 Microbeta (Perkin-Elmer). • 2. For transport study samples run in triplicate, the mean and standard deviation of the replicates were reported. • 3. […]

A2058 cells = assay: Chemotaxis Assay (LPA-induced migration of A2058 cells); format: cell-based; conditions: Homo sapiens, 4 to 8 hours, crystal violet 590 nm
Experimental: For monitoring the migration of cells, Neuroprobe ChemoTx® System plates ([…], 5.7 mm diameter sites; Gaithersburg, MD, USA) were utilized. To induce cell migrations, a concentration of […] or vehicle in DMEM were loaded to the bottom chamber. A total of 15,000 A2058 cells, which were starved for 24 hr following treated with test compounds or vehicle, were then applied to the upper membrane coated with 0.001% fibronectin. The plate was incubated for 4 to 8 hours to allow cell migration. Following incubation, the plate was dissembled, and the migrated cells were visualized by crystal violet staining. The stained area with crystal violet was quantified by measuring the absorbance at 590 nm and the relative percentage of the control was calculated.

hLPAR1 = biological target: T2, hLPAR1 (Homo sapiens, UniProt Q92633); assay: Ca2+ Flux Assay (B103 cells stably expressing hLPAR1); format: cell-based; conditions: LPA-induced calcium release, Fura-2 AM, compound 20 min at RT
T2 construct: expressed in transfected cells
T2 sequence (Q92633 whole entry): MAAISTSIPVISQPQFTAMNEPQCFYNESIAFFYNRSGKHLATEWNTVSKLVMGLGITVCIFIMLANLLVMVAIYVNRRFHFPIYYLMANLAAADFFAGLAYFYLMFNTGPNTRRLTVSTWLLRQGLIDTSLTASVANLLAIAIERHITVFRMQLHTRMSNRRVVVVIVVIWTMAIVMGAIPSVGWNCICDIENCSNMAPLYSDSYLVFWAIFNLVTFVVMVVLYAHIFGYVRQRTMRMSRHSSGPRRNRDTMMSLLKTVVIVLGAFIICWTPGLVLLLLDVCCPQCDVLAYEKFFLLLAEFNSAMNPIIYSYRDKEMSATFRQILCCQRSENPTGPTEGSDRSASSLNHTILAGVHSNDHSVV
Experimental: B103 cells stably expressing hLPAR1 were seeded at a density of 1.0×10^5 cells per well in clear flat-bottom black 96-well plates and incubated overnight in complete media. The following day, the cells were pre-incubated in serum-free media for 2 hours prior to ensure cellular equilibration. For the loading a calcium-sensitive fluorescent dye, the cells were treated with a concentration of 5 μM Fura-2 AM dye (Sigma, F1225) in Hank's buffered salt solution (HBSS) supplemented with 20 mM HEPES, […], and 0.3% fatty-acid-free bovine serum albumin for 40 minutes at room temperature (RT). Test compounds, prepared in DMSO, were then added to each well and incubated for 20 minutes at RT. To induce calcium release, a concentration of […] in HBSS supplemented with 20 mM HEPES, and 0.3% fatty-acid-free bovine serum albumin was introduced. Intracellular calcium mobilization was subsequently quantified by monitoring the fluorescence intensity using the Spark® multimode microplate reader (TECAN).

T1 sequence (O95342 whole entry): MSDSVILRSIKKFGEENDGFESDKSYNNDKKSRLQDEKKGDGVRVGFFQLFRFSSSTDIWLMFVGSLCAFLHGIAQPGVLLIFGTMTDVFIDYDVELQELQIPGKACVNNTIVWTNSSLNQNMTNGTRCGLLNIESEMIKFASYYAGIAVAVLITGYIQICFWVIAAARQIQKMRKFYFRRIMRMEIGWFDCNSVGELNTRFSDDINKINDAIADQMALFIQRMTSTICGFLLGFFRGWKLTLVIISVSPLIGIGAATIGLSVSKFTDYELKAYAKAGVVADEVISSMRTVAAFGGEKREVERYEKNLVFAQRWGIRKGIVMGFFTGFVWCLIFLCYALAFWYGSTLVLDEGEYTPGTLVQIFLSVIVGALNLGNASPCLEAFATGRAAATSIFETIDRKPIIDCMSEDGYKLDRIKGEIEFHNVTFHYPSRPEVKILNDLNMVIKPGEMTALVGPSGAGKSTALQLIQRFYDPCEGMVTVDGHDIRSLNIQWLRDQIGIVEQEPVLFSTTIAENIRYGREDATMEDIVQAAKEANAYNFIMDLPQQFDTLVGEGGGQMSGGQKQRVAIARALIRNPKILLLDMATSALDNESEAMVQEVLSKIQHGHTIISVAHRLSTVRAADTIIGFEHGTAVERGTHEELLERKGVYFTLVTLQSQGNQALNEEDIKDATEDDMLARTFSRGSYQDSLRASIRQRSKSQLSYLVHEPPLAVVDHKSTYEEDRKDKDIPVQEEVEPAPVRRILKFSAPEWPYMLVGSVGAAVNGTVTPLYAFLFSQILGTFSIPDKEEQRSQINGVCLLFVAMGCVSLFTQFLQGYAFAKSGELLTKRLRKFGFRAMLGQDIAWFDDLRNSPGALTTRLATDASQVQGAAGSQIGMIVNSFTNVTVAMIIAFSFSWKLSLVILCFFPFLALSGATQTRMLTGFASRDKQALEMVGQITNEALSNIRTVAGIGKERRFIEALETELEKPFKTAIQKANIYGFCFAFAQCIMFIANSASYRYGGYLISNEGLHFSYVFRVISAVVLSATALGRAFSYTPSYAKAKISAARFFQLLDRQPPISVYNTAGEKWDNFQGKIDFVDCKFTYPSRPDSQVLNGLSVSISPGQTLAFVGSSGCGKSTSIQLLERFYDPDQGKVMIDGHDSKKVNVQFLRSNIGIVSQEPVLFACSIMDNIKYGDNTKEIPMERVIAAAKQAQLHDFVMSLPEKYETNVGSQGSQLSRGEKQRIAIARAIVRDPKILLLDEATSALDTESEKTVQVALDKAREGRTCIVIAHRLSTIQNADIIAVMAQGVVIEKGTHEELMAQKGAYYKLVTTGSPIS

IC50 (A2058 cells) [nM]	IC50 (hLPAR1) [nM]	Compound	inhibition at 0.25 h, 10 µM (BSEP) [%]
< 100	< 10	Cc1ccccc1[C@@H](C)OC(=O)Nc1c(C)noc1C1CC2(C1)CN(c1ccc(C3(C(=O)NS(C)(=O)=O)CC3)cc1)C2 [Compound 7]	75 to 100
100 to 500	< 10	Cc1noc(C2CC3(C2)CN(c2ccc(C4(C(=O)NS(C)(=O)=O)CC4)cc2)C3)c1NC(=O)O[C@H](C)c1ccccc1 [Compound 9]	50 to 75
500 to 5000	< 10	C[C@@H](OC(=O)Nc1c(C2CCN(c3ccc(C4(C(=O)NS(=O)(=O)CCC(=O)O)CC4)cc3)CC2)nnn1C)c1ccccc1 [Compound 17]	≤ 25
< 100	< 10	COc1ccc(C2CCN(c3ccc(C4(C(=O)O)CC4)cc3)CC2)c(NC(=O)O[C@H](C)c2ccccc2)c1 [Compound 19, (R)-1-(4-(4-(4-methoxy-2-(((1-phenylethoxy)carbonyl)amino)phenyl)piperidin-1-yl)phenyl)cyclopropane-1-carboxylic acid]	50 to 75
100 to 500	10 to 200	Cc1noc(C2CCN(c3ccc(C4(C(=O)O)CC4)cc3)CC2)c1C(O)CCCc1ccccc1 (stereo not drawn) [Compound 20]	75 to 100
< 100	< 10	Cc1ccccc1[C@@H](C)OC(=O)Nc1c(C)noc1C1CC2(C1)CN(c1ccc(C3(C(=O)O)CC3)cc1)C2 [Compound 33, 1-(4-{6-[3-methyl-4-({[(1R)-1-(2-methylphenyl)ethoxy]carbonyl}amino)-1,2-oxazol-5-yl]-2-azaspiro[3.3]heptan-2-yl}phenyl)cyclopropane-1-carboxylic acid]	75 to 100
< 100	< 10	CCc1ccccc1[C@@H](C)OC(=O)Nc1c(C)noc1C1CCN(c2ccc(C3(C(=O)NS(=O)(=O)CCC(=O)O)CC3)cc2)CC1 [Compound 37, 3-({[1-(4-{4-[4-({[(1R)-1-(2-ethylphenyl)ethoxy]carbonyl}amino)-3-methyl-1,2-oxazol-5-yl]piperidin-1-yl}phenyl)cyclopropyl]formamido}sulfonyl)propanoic acid]	50 to 75
< 100	10 to 200	Cc1noc(C2CC3(C2)CN(c2ccc(C4(C(=O)O)CC4)cc2)C3)c1NC(=O)O[C@H](C)c1ccccc1 [Compound 54, 1-(4-{6-[3-methyl-4-({[(1R)-1-phenylethoxy]carbonyl}amino)-1,2-oxazol-5-yl]-2-azaspiro[3.3]heptan-2-yl}phenyl)cyclopropane-1-carboxylic acid]	25 to 50
100 to 500	10 to 200	C[C@@H](OC(=O)Nc1c(C2CCN(c3ccc(C4(C(=O)O)CC4)cc3)CC2)cnn1C)c1ccccc1 [Compound 55]	25 to 50
100 to 500	10 to 200	C[C@@H](OC(=O)Nc1c(C2CCN(c3ccc(C4(C(=O)NS(=O)(=O)CC(=O)O)CC4)cc3)CC2)nnn1C)c1ccccc1 [Compound 58, 2-[[1-[4-[4-[1-methyl-5-[[(1R)-1-phenylethoxy]carbonylamino]triazol-4-yl]-1piperidyl]phenyl]cyclopropanecarbonyl]sulfamoyl]acetic acid]	≤ 25
100 to 500	< 10	C[C@@H](OC(=O)Nc1c(C2CCN(c3ccc(C4(C(=O)NS(=O)(=O)CCO)CC4)cc3)CC2)nnn1C)c1ccccc1 [Compound 59]	≤ 25
100 to 500	10 to 200	C[C@@H](OC(=O)Nc1c(C2CCN(c3ccc(C4(C(=O)O)CC4)cc3)CC2)nnn1C)c1ccccc1 [Compound 60, (R)-1-(4-(4-(1-methyl-5-(((1-phenylethoxy)carbonyl)amino)-1H-1,2,3-triazol-4-yl)piperidin-1-yl)phenyl)cyclopropane-1-carboxylic acid]	≤ 25
< 100	< 10	Cc1cc(C2(C(=O)O)CC2)ccc1N1CCC(c2onc(C)c2NC(=O)O[C@H](C)c2ccccc2)CC1 [Compound 61]	50 to 75
< 100	< 10	COc1cc(C2(C(=O)O)CC2)ccc1N1CCC(c2onc(C)c2NC(=O)O[C@H](C)c2ccccc2)CC1 [Compound 63, (R)-1-(3-methoxy-4-(4-(3-methyl-4-(((1-phenylethoxy)carbonyl)amino)isoxazol-5-yl)piperidin-1-yl)phenyl)cyclopropane-1-carboxylic acid]	≤ 25
100 to 500	10 to 200	CNC(=O)C1(c2ccc(N3CCC(c4onc(C)c4NC(=O)O[C@H](C)c4ccccc4)CC3)cc2)CC1 [Compound 65]	50 to 75
< 100	< 10	Cc1noc(C2CCN(c3ccc(C4(C(=O)NS(=O)(=O)C(C)C(=O)O)CC4)cc3)CC2)c1NC(=O)O[C@H](C)c1ccccc1 (stereo partly drawn) [Compound 71]	25 to 50
< 100	< 10	Cc1noc(C2CCN(c3ccc(C4(C(=O)NS(=O)(=O)C(C)CC(=O)O)CC4)cc3)CC2)c1NC(=O)O[C@H](C)c1ccccc1 (stereo partly drawn) [Compound 72]	≤ 25
< 100	< 10	Cc1noc(C2CCN(c3ccc(C4(C(=O)O)CC4)cc3)CC2)c1NC(=O)O[C@H](C)c1ccccc1Cl [Compound 74, 1-(4-{4-[4-({[(1R)-1-(2-chlorophenyl)ethoxy]carbonyl}amino)-3-methyl-1,2-oxazol-5-yl]piperidin-1-yl}phenyl)cyclopropane-1-carboxylic acid]	50 to 75
< 100	< 10	Cc1noc(C2CCN(c3ccc(C4(C(=O)NS(=O)(=O)CC(C)(C)C(=O)O)CC4)cc3)CC2)c1NC(=O)O[C@H](C)c1ccccc1 [Compound 78, (R)-2,2-dimethyl-3-(N-(1-(4-(4-(3-methyl-4-(((1-phenylethoxy)carbonyl)amino)isoxazol-5-yl)piperidin-1-yl)phenyl)cyclopropane-1-carbonyl)sulfamoyl)propanoic acid]	25 to 50
